Tested on: rat mammary tumor line (MAT-B-III)
Assay: Optical (NIR fluorescence) imaging of tumor to background ratio in tumor rat model
Format: in vivo
From the text: For optical imaging the signal to ratio background ratio is defined as the mean fluorescence intensity (target tissue)/mean fluorescence intensity (background tissue). For optical imaging methods, target to background ratio may be determined using computer-controlled (LabVIEW) camera acquisition via custom LabVIEW software. […] A region of interest (ROI) maybe defined in both the tumor area and the background tissue area. Fluorescence emission from the ROI may be received at a near-infrared sensitive 12-bit CCD camera, in which the intensities range from 0-4095.
Optical Imaging Using Tumor Rat Model. Step 1. Introduction of Tumor Cells into Animal. Intra-mammary gland tumor injection is a survival surgery. All procedures are performed with the animal lying on a circulating water pad. With the anesthetized rat lying on its back, the sterile prepped ventral abdominal skin is picked up, just above the left groin (inguinal) area and a small incision is made with scissors being careful to avoid the underlying peritonium. The fourth mammary gland is easily visible, lying on the dorsal surface of the skin directly on top of a junction point for the mammary artery and vein. Using a 1 cc syringe, 10^6 cells (0.1 ml) were injected directly into the gland. Only one mammary gland per rat was inoculated with tumor cells. The skin wound was closed with surgical staples. Surgical staples were removed 3 days after insertion.
Animals are treated with test agents and imaged 7 days after tumor injections. Test agents are administered via a tail vein injection (100-500 μl). For MR studies, animals received a pre-injection scan, followed by post-injection scans. Images were obtained post injection at approximately 4-minute intervals following injection for up to 30-40 minutes. In some experiments images were again taken at 24 hours after injection. For optical studies, animals were imaged at 0.5, 6, 12, and 24 hours.
Step 2. Agent Administration. After approximately 8 days following tumor cell implantation (the tumor size reached about 5-10 mm diameter) one of several imaging agents listed in Table 2 was administered to the animal at the corresponding dosage indicated in Table 2.
Step 3. Surgical Resection. Surgical tumor resection is a non-survival surgery. Tumors were resecteded when they reached a diameter in the range of 5-10 mm in diameter. With the anesthetized rat lying on its back, the ventral abdominal skin is picked up, just above the left groin (inguinal) area and a small incision is made (at or near the site of tumor inoculation) with scissors being careful to avoid the underlying peritonium. The tumor, growing in the mammary gland, stays contained in this tissue and is easily removed. The tumor was held with a pair of forceps and using a scalpel is removed from the surrounding connective tissue. After the tumor was removed, a midline incision, through the peritoneum was made, other organs were observed and imaged, and sampled for histological and biodistribution studies.
Step 4. Data Capture. Images were captured for later evaluation of the relative intensity of fluorescence in the kidney, liver, bladder, muscle etc. Samples of blood and urine were acquired and stored, the animal was sacrificed, and the clearance organs were removed from animal and frozen in a slurry of dry ice and 2-methylbutane. The tissues were then placed in an embedding medium (OCT, […]) and frozen at −80° C. Blood and urine samples were analyzed for concentration of agent at this time point, and for evidence of metabolism of the administered agent.
Statistical Analysis of Optical Imagine Results. To reduce the large number of variables in this problem and one polymer length (˜400 residues) was chosen at a high percentage conjugation (˜96%) for the MR imaging moiety (Gd-DTPA) with one dye per molecule. In one set of experiments, a tetra-sulfonated dye (Cy5.5-NHS-Ester) was then compared with a bis-sulfonated dye (Cy5-NHS-Ester). […]

CC[N+]1=C(C=CC=CC=C2N(CCCCCC(=O)O)c3ccc(S(=O)(=O)[O-])cc3C2(C)C)C(C)(C)c2cc(S(=O)(=O)[O-])ccc21.[Na+] [Cy5 free dye, 2-[5-[1-(5-carboxypentyl)-1,3-dihydro-3,3-dimethyl-5-sulfo-2H-indol-2-ylidene]-penta-1,3-dienyl]-3,3-dimethyl-5-sulfo-1-ethyl-3H-indolium, inner salt, sodium salt]
Average of Tumor/Bkgnd (dose printed as 'blank', 6 hours post injection): 1.17 | Average of Tumor/Bkgnd (dose printed as 'blank', 12 hours post injection): 1.18 | Average of Tumor/Bkgnd (dose printed as 'blank', 24 hours post injection): 1.17 | Average of Tumor/Bkgnd (dose printed as 'blank', Total over time points): 1.17 | Average of Tumor/Bkgnd (vector subtotal over all doses, 6 hours post injection): 1.17 | Average of Tumor/Bkgnd (vector subtotal over all doses, 12 hours post injection): 1.18 | Average of Tumor/Bkgnd (vector subtotal over all doses, 24 hours post injection): 1.17 | Average of Tumor/Bkgnd (vector subtotal over all doses, Total over time points): 1.17
